BindingDB's records for doi:10.1016/j.ejmech.2008.01.010 (Universit&#233, 2008)
Where a name gives a salt, the structure may show the parent alone.

Assays:
[1] = target: Vascular endothelial growth factor receptor 2 (Homo sapiens, UniProt P35968); assay: Inhibition of KDR
[2] = target: Insulin-like growth factor 1 receptor (Homo sapiens, UniProt P08069); assay: Inhibition of IGF1R
[3] = target: Hepatocyte growth factor receptor (Homo sapiens, UniProt P08581); assay: Inhibition of cMet
[4] = target: Proto-oncogene tyrosine-protein kinase receptor Ret (Homo sapiens, UniProt P07949); assay: Inhibition of Ret
[5] = target: Proto-oncogene tyrosine-protein kinase Src (Homo sapiens, UniProt P12931); assay: Inhibition of Src
[6] = target: Tyrosine-protein kinase ABL1 (Homo sapiens, UniProt P00519); assay: Inhibition of c-Abl
Tyrosine-protein kinase ABL1, sequence (P00519 whole entry): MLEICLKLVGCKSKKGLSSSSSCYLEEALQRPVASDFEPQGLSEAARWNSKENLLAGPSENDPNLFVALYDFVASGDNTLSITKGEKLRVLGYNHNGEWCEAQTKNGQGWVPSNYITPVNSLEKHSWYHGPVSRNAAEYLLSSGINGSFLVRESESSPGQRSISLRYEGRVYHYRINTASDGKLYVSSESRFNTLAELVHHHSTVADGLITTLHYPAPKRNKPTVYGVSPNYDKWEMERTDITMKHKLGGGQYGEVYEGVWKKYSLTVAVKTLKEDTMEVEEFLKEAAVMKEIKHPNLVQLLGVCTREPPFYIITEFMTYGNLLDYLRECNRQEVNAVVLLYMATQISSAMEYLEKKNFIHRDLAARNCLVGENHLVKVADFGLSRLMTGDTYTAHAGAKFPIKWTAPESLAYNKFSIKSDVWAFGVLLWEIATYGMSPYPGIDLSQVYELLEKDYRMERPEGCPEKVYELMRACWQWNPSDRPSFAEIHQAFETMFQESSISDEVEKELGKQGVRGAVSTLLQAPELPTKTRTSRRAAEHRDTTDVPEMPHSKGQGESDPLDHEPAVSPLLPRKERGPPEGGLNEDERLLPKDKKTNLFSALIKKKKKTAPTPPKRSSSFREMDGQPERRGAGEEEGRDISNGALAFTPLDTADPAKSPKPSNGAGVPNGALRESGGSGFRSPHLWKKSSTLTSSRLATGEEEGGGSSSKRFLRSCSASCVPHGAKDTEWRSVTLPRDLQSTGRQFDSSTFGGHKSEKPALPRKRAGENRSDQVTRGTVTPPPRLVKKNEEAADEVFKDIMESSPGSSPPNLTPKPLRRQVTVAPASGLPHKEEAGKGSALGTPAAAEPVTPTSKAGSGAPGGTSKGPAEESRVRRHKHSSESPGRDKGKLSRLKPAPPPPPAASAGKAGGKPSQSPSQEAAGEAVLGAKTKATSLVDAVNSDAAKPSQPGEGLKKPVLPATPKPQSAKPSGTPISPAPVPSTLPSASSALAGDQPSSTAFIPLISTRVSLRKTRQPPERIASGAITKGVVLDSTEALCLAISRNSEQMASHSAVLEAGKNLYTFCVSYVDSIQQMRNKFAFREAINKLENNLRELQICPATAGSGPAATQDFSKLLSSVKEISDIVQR

Proto-oncogene tyrosine-protein kinase Src, sequence (P12931 2-536 limits assumed): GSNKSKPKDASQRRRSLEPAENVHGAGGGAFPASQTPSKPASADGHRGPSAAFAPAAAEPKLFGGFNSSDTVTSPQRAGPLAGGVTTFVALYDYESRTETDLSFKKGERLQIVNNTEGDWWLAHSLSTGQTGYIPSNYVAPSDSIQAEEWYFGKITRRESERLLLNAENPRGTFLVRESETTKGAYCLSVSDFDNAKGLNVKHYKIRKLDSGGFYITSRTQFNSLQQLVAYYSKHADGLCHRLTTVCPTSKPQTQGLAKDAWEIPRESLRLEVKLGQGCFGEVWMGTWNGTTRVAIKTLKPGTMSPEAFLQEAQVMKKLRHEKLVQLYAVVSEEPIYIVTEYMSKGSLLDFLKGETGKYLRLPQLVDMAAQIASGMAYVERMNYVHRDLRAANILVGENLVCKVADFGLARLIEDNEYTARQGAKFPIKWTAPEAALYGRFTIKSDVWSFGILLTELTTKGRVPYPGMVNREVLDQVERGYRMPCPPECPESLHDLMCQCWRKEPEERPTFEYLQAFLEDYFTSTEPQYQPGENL
Proto-oncogene tyrosine-protein kinase receptor Ret, sequence (P07949 whole entry): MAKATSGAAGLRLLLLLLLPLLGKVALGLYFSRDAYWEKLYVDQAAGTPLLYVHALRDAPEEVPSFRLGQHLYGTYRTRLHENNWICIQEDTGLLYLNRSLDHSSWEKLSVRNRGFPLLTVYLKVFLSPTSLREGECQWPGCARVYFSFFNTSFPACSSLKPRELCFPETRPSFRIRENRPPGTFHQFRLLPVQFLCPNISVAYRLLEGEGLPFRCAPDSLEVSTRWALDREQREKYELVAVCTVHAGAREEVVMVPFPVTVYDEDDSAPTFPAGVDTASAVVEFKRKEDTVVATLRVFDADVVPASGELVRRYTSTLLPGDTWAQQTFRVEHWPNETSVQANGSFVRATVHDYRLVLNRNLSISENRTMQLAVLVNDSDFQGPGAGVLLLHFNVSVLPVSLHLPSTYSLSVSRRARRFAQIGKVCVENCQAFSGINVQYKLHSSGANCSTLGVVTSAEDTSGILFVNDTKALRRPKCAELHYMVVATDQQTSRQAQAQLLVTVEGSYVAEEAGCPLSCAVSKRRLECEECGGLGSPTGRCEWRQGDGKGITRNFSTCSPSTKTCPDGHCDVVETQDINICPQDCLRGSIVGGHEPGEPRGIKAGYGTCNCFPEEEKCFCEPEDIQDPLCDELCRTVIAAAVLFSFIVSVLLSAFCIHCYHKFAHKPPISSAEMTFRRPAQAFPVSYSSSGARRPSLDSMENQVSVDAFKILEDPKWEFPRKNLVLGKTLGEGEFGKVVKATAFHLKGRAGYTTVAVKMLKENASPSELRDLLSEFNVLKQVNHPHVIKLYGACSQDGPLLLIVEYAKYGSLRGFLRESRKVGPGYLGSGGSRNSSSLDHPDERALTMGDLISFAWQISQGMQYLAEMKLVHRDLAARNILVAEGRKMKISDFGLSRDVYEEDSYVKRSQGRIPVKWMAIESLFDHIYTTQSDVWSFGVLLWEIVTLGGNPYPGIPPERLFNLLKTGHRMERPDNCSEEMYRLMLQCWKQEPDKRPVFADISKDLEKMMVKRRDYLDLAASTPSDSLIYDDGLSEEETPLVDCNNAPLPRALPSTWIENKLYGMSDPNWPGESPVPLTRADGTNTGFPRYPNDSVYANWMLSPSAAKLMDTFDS
Hepatocyte growth factor receptor, sequence (P08581 whole entry): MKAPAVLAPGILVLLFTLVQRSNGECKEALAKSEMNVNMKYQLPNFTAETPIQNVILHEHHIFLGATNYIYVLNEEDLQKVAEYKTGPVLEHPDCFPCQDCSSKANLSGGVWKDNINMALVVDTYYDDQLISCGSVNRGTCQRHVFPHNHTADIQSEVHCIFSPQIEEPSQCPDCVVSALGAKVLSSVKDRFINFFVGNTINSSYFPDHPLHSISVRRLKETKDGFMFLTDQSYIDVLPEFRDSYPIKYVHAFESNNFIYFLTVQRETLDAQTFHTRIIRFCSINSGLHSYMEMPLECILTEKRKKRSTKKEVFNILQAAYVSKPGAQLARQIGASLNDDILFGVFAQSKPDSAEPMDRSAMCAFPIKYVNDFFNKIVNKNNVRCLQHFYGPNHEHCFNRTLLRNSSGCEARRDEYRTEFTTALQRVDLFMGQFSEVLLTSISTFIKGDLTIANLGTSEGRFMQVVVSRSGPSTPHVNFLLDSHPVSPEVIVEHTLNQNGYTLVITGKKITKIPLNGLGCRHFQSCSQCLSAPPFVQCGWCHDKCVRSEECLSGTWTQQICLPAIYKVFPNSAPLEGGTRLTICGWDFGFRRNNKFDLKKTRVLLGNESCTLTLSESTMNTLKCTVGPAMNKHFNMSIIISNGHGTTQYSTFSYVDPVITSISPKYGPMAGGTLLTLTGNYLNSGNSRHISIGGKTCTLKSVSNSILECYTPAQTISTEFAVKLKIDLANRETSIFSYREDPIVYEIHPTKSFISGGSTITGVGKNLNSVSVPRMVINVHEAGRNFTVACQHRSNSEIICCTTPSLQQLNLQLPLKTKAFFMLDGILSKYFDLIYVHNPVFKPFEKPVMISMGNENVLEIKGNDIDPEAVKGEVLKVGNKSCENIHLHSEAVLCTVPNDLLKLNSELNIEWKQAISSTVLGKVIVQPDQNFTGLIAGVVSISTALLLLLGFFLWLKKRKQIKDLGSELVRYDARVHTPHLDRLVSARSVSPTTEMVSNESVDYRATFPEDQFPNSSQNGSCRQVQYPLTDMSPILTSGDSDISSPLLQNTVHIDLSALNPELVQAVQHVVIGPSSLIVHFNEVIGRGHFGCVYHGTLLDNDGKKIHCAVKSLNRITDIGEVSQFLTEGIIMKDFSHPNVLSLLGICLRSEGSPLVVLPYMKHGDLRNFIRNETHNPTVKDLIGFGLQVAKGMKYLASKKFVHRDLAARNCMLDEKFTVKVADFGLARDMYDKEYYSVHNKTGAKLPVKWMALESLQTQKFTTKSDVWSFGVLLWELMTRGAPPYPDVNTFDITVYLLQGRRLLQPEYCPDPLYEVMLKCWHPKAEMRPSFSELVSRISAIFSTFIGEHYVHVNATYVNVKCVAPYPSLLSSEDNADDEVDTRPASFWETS

IC50 [1] [µM]	IC50 [2] [µM]	IC50 [3] [µM]	IC50 [4] [µM]	IC50 [5] [µM]	IC50 [6] [µM]	SMILES
> 10	> 10	> 10	> 10	> 10	> 10	N[C@@H](CCCCN=CC1C(=O)Nc2ccccc21)C(=O)O (stereo partly drawn) [(Z/E)-(2S)-2-amino-6-([(2-oxo-indolin-3-ylidene)methyl]amino)hexanoic acid hydrochloride]
> 10	> 10	> 10	> 10	> 10	> 10	N[C@@H](CCCN=CC1C(=O)Nc2ccccc21)C(=O)O (stereo partly drawn) [(Z/E)-(2S)-2-amino-5-([(2-oxo-indolin-3-ylidene)methyl]amino)pentanoic acid hydrochloride]
> 10	> 10	> 10	> 10	> 10	> 10	N[C@@H](CCCCN=CC1C(=O)Nc2ccc(Br)cc21)C(=O)O (stereo partly drawn) [(Z/E)-(2S)-2-amino-6-([(5-bromo-2-oxo-indolin-3-ylidene)methyl]amino)hexanoic acid hydrochloride]
